Assay results as given in ChEMBL document CHEMBL3714716, “Modulators of the relaxin receptor 1” (2015).
Calls of active or inactive are those of the source. The rule behind the calls is not given here.

Key:
Plasma [1] = test: AUMClast in C57/BL6 mouse plasma at 30 mg/kg, po administered as single dose; type: ADME, organism-based; settings: in vivo
Plasma [2] = test: AUMClast in C57/BL6 mouse plasma at 3 mg/kg, iv administered as single dose; type: ADME, organism-based; settings: in vivo
[3] = Cmax in C57/BL6 mouse plasma at 30 mg/kg, po administered as single dose; type: ADME, organism-based; design: dose 30 mg/kg, route oral
[4] = Tmax in C57/BL6 mouse plasma at 30 mg/kg, po administered as single dose; type: ADME, organism-based
[5] = Initial plasma concentration in C57/BL6 mouse plasma at 3 mg/kg, iv administered as single dose; type: ADME, organism-based
Heart [6] = test: AUMClast in C57/BL6 mouse heart at 3 mg/kg, iv administered as single dose; type: ADME, organism-based; settings: in vivo
[7] = target: T1, Relaxin receptor 1 (Mus musculus) (UniProt Q6R6I7); test: Agonist activity at mouse RXFP1 receptor M10 Ile646Val and Leu647Val mutant expressed in HEK293 cells assessed as stimulation of cAMP production incubated for 30 mins by TR-FRET based HTRF assay; type: functional, cell-based
T1 sequence (whole entry): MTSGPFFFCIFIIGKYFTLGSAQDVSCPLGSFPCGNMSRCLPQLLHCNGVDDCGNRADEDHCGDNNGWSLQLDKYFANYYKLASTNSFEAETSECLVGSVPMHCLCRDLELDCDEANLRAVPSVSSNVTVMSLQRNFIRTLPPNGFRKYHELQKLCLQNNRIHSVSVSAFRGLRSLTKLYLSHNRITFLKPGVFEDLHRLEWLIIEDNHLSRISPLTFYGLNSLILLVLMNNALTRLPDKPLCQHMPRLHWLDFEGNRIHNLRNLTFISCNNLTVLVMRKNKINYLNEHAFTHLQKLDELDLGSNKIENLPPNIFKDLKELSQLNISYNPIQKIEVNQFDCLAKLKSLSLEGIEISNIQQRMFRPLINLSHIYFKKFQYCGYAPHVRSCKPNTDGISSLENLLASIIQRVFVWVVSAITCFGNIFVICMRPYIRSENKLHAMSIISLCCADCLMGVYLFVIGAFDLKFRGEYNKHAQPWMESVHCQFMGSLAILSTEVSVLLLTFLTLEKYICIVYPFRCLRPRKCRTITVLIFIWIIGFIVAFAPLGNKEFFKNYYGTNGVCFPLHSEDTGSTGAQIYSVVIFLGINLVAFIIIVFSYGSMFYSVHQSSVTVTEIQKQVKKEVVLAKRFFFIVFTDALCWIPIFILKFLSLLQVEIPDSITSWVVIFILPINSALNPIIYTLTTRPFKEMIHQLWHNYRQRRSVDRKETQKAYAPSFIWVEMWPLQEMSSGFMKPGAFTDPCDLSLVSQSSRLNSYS

[8] = target: Relaxin receptor 2 (Mus musculus) (UniProt Q91ZZ5); test: Agonist activity at mouse RXFP2 receptor expressed in HEK293 cells assessed as stimulation of cAMP production incubated for 30 mins by TR-FRET based HTRF assay; type: functional, cell-based
[9] = target: T2, Relaxin receptor 1 (Macaca mulatta) (UniProt I2CTQ4); test: Agonist activity at monkey RXFP1 receptor assessed as stimulation of cAMP production incubated for 30 mins by TR-FRET based HTRF assay; type: functional
T2 sequence (whole entry): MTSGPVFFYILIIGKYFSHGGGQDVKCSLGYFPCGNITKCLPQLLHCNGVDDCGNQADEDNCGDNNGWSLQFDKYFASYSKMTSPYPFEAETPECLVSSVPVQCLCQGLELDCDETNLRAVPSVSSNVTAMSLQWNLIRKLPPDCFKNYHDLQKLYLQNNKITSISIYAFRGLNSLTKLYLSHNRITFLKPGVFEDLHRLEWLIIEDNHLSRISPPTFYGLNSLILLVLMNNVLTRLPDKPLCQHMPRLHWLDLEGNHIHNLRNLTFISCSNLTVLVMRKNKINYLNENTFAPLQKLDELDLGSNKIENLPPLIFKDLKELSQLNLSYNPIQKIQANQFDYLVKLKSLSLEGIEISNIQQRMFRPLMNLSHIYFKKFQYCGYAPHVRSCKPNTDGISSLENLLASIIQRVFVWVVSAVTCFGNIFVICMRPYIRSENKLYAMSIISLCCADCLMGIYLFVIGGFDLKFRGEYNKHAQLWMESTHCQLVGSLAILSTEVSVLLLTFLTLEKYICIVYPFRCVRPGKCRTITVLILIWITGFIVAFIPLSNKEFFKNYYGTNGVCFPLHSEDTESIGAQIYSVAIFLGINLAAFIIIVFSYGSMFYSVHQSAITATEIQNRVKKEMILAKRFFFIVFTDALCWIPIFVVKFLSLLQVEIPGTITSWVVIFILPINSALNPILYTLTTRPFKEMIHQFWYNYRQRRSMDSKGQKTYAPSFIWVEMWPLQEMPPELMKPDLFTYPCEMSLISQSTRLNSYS

[10] = target: T1, Relaxin receptor 1 (Mus musculus); test: Agonist activity at mouse RXFP1 receptor M11 Asp659Gly and Ser660Thr mutant expressed in HEK293 cells assessed as stimulation of cAMP production at 66 uM incubated for 30 mins by TR-FRET based HTRF assay relative to relaxin; type: functional, cell-based; design: scale not given: the % may be the effect or the level left
[11] = target: T3, Uncharacterized protein (Sus scrofa) (UniProt F1RW91); test: Agonist activity at pig RXFP1 receptor assessed as stimulation of cAMP production incubated for 30 mins by TR-FRET based HTRF assay; type: functional
T3 sequence (whole entry): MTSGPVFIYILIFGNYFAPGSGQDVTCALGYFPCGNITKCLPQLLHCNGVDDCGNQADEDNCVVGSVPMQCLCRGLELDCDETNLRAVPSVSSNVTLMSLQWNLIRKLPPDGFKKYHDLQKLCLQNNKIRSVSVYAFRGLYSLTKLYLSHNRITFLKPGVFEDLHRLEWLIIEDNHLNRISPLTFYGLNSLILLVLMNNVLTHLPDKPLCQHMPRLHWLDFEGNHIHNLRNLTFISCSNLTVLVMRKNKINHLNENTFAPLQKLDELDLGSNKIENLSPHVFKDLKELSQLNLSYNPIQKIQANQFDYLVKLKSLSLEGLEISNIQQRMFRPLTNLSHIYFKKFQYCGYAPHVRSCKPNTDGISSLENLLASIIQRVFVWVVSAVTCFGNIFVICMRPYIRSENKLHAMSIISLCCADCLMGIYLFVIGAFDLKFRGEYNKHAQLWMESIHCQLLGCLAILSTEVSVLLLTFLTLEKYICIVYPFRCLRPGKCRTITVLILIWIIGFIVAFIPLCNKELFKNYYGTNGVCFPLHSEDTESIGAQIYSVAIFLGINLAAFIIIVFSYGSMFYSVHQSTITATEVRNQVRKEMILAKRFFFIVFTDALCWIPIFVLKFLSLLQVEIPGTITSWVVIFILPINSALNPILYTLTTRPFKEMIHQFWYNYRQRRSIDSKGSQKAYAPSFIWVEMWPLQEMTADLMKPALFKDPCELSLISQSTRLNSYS

Heart [12] = test: AUMClast in C57/BL6 mouse heart at 30 mg/kg, po administered as single dose; type: ADME, organism-based; settings: in vivo
[13] = target: T1, Relaxin receptor 1 (Mus musculus); test: Agonist activity at mouse RXFP1 receptor expressed in HEK293 cells assessed as stimulation of cAMP production incubated for 30 mins by TR-FRET based HTRF assay; type: functional, cell-based
[14] = Tmax in C57/BL6 mouse heart at 30 mg/kg, po administered as single dose; type: ADME, organism-based

Chain of Relaxin receptor 2 (Mus musculus) (Q91ZZ5 whole entry): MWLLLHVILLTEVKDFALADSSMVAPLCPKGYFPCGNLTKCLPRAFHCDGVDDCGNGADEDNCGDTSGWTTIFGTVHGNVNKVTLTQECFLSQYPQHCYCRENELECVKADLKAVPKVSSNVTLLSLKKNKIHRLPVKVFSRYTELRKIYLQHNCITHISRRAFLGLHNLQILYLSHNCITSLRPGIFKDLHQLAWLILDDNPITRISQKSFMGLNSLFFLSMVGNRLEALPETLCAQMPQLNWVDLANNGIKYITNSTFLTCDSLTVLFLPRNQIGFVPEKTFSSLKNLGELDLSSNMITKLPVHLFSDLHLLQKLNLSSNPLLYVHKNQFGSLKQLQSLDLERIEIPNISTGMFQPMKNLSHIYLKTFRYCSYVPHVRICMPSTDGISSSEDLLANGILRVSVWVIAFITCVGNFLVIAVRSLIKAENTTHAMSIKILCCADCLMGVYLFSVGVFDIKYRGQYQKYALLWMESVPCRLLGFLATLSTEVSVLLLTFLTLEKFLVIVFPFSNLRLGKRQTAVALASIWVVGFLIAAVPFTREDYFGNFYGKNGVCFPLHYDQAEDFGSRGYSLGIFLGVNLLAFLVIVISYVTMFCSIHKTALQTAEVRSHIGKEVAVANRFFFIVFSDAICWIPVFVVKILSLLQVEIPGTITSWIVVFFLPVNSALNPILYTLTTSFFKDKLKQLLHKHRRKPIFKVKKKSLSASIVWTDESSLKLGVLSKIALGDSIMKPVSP

## CC(C)Oc1ccccc1C(=O)Nc1ccccc1C(=O)Nc1cccc(S(=O)(=O)C(F)(F)F)c1
Plasma [1]
  AUMClast: 2990 hr.hr.ng/ml
Plasma [2]
  AUMClast: 3110 hr.hr.ng/ml
[3]
  Cmax: 0.306 µg/mL
[4]
  Tmax: 0.5 h
[5]
  C0: 0.499 µg/mL
Heart [6]
  AUMClast: 28300 hr.hr.ng/ml
[7]
  Activity: inactive
[8]
  Activity: inactive
[9]
  Activity: Active
[10]
  Activity: 44.4%
[11]
  Activity: Active
Heart [12]
  AUMClast: 5780 hr.hr.ng/ml
[13]
  Activity: inactive
[14]
  Tmax: 1.5 h
